The text below walks through data of patent publication US7928233B2, “Spiroindolinone pyridine derivatives” (Hoffmann-La Roche Inc., priority 2009, dated 2011).

This assay has as its target interaction between p53 and MDM2 proteins (recombinant GST-tagged MDM2 / p53 peptide) (Homo sapiens, UniProt Q00987). Briefly: HTRF assay of inhibition of p53-MDM2 interaction. Format: binding. As to conditions: 0.02% BSA; HTRF GST-MDM2 / biotinylated p53 peptide. On the procedure: The ability of the compounds to inhibit the interaction between p53 and MDM2 proteins was measured by an HTRF (homogeneous time-resolved fluorescence) assay in which recombinant GST-tagged MDM2 binds to a peptide that resembles the MDM2-interacting region of p53 (Lane et al.). Binding of GST-MDM2 protein and p53-peptide (biotinylated on its N-terminal end) is registered by the FRET (fluorescence resonance energy transfer) between Europium (Eu)-labeled anti-GST antibody and streptavidin-conjugated Allophycocyanin (APC).
Test is performed in black flat-bottom 384-well plates (Costar) in a total volume of 40 uL containing: 90 nM biotinylate peptide, 160 ng/ml GST-MDM2, 20 nM streptavidin-APC (PerkinElmerWallac), 2 nM Eu-labeled anti-GST-antibody (PerkinElmerWallac), 0.2% bovine serum albumin (BSA), 1 mM dithiothreitol (DTT) and 20 mM Tris-borate saline (TBS) buffer as follows: Add 10 uL of GST-MDM2 (640 ng/ml working solution) in reaction buffer to each well. Add 10 uL diluted compounds (1:5 dilution in reaction buffer) to each well, mix by shaking Add 20 uL biotinylated p53 peptide (180 nM working solution) in reaction buffer to each well and mix on shaker. Incubate at 37° C. for 1 h. Add 20 uL streptavidin-APC and Eu-anti-GST antibody mixture (6 nM Eu-anti-GST and 60 nM streptavidin-APC working solution) in TBS buffer with 0.2% BSA, shake at room temperature for 30 minutes and read using a TRF-capable plate reader at 665 and 615 nm (Victor 5, Perkin ElmerWallac). If not specified, the reagents were purchased from Sigma Chemical Co.
(In general: In TR-FRET formats the signal depends on donor and acceptor labels being close together.)

interaction between p53 and MDM2 proteins (recombinant GST-tagged MDM2 / p53 peptide), sequence (Q00987 whole entry): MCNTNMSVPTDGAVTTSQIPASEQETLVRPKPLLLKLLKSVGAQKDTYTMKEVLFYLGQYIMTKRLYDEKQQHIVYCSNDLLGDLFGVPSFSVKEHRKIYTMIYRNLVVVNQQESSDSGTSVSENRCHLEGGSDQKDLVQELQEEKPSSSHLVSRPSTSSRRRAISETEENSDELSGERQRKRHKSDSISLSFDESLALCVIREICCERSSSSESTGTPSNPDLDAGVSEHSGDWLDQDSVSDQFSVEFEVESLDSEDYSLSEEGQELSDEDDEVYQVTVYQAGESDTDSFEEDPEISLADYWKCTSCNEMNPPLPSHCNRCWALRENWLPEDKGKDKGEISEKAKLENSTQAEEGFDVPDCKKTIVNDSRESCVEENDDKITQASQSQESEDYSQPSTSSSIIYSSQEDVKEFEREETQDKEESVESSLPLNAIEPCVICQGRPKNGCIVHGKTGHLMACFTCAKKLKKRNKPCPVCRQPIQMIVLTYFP

The IC50 is the concentration needed to halve the response being measured. As for `Cc1ccc(Cl)cc1[C@@H]1NC(=O)C[C@H](c2cc(Cl)cnc2OC(C)(C)C(=O)O)[C@@]12C(=O)Nc1cc(Cl)ccc12` [Example 15, chiral (2′S, 3S, 4′R)-6-chloro-4′-[5-chloro-2-(1-hydroxycarbonyl-1-methyl-ethoxy)-pyridin-3-yl]-2′-(5-chloro-2-methyl-phenyl) spiro[3H-indole-3,3′-piperidine]-2,6′(1H)-dione], the IC50 stood at 56 nM. With `Cc1ccc(F)cc1[C@@H]1NC(=O)C[C@H](c2cc(Cl)cnc2OC(C)(C)C(=O)O)[C@@]12C(=O)Nc1cc(Cl)ccc12` [Example 9, chiral (2′S, 3S, 4′R)-6-chloro-4′-[5-chloro-2-(1-hydroxycarbonyl-1-methyl-ethoxy)-pyridin-3-yl]-2′-(5-fluoro-2-methyl-phenyl) spiro[3H-indole-3,3′-piperidine]-2,6′(1H)-dione] the figure was 108 nM; with `Cc1ccc(F)cc1[C@@H]1NC(=O)C[C@H](c2cc(Cl)cnc2OC(C)(C)C(=O)O)[C@@]12C(=O)Nc1cc(Cl)ccc12` (racemic) [Example 8, racemic (2′S, 3S, 4′R)-6-chloro-4′-[5-chloro-2-(1-hydroxycarbonyl-1-methyl-ethoxy)-pyridin-3-yl]-2′-(5-fluoro-2-methyl-phenyl) spiro[3H-indole-3,3′-piperidine]-2,6′(1H)-dione], 145 nM. With `Cc1ccc(F)cc1[C@@H]1NC(=O)C[C@H](c2cc(Cl)cnc2OC(C)(C)C(=O)NS(C)(=O)=O)[C@@]12C(=O)Nc1cc(Cl)ccc12` [Example 11, chiral (2′S, 3S, 4′R)-4′-[5-chloro-2-(2-methanesulfonylamino-1,1-methyl-2-oxo-ethoxy)-pyridin-3-yl]-6-chloro-2′-(5-fluoro-2-methyl-phenyl) spiro[3H-indole-3,3′-piperidine]-2,6′(1H)-dione] the figure was 135 nM.
